Data reported in patent US11672795B2, “Compositions and methods for treating pulmonary vascular disease” (UNIVERSITY OF PITTSBURGH-OF THE COMMONWEALTH SYSTEM OF …, priority 2016, dated 2023).
Where two headings read alike, the source gives them in different places.

What was measured:
Assay type in all cases: in vivo, rat
[1] = Left ventricular function and systemic blood pressure in treated monocrotaline-exposed rats; conditions: for adverse effects on left ventricular cardiac function: daily BAPN or daily i.p. verteporfin 25 mg/kg
GLS1 [2] = conditions: monocrotaline-exposed rats; for GLS1 activity in whole rat lung: daily i.p. 10 mg/kg, C968 from day 2 (prevention), CB839 from day 7 (reversal), vs vehicle; for GLS activity: daily BAPN or daily i.p. verteporfin 25 mg/kg
Protocol: According to the manufacturer instructions (Glutaminase Microplate Assay Kit, Cohesion Biosciences), flash frozen rat lung tissue (0.1 g/sample) was homogenized in 1 mL of assay buffer on ice and centrifuged at 8000 g 4° C. for 10 min. Protein concentration was determined by Bradford assay. Samples, normalized to total protein (100 μg), were incubated with kit reagents for 1 hr at 37° C., and absorbances were measured at 420 nm.
To induce PH, male Sprague-Dawley rats (10-14 week old) were injected intraperitoneally with 60 mg/kg monocrotaline (Sigma-Aldrich). After two days, rats underwent intraperitoneal injection daily with 25 mg/kg of verteporfin (Active Biochemicals Company, Ltd) solubilized in 5% dimethyl sulfoxide (DMSO, Sigma-Aldrich). Two days after the last injection on day 21 post-monocrotaline injection, right heart catheterization was performed followed by harvest of lung tissue and CD31+ cells for RNA or protein extraction, paraffin embedding, or cryopreservation with OCT (Sigma-Aldrich), as we described (2).
To induce PH, male Sprague-Dawley rats (10-14 week old) were injected intraperitoneally with 60 mg/kg monocrotaline (Sigma-Aldrich). After two days, serial intraperitoneal injections were given daily of C968 (10 mg/kg, Sigma-Aldrich), and after seven days post-monocrotaline injection, serial intraperitoneal injections were given daily of CB839 (10 mg/kg, Selleck Chemicals). Two days after the last injection on day 21 post-monocrotaline injection, right heart catheterization was performed followed by harvest of lung tissue and CD31+ cells for RNA or protein extraction, paraffin embedding, or cryopreservation with OCT (Sigma-Aldrich), as we described (2).

YAP/TAZ target genes = assay: RT-qPCR of YAP/TAZ target genes in CD31+ cells of monocrotaline-exposed rats; conditions: daily BAPN or daily i.p. verteporfin 25 mg/kg
Protocol: (§1) Messenger RNAs were reverse transcribed using the Multiscript RT kit (Life Technologies) to generate cDNA. cDNA was amplified via fluorescently labeled Taqman primer sets using an Applied Biosystems 7900HT Fast Real Time PCR device. To specifically determine the relative expression of the two GLS1 isoforms KGA and GAC, TaqMan gene expression assays Hs01014019_m1 and Hs01022166_m1 were used respectively. Fold-change of RNA species was calculated using the formula (2^−ΔΔCt), normalized to RPLP0 expression.
(§2) As previously reported (8, 11), lobes of lung tissue from a rat were diced with scissors, to which 200 μL of collagenase D solution (Sigma) was added for a final concentration of 2 mg/ml collagenase D in 4.8 mL HEPES buffer (pH=7.4). After incubation for 30 min at 37° C. with automated rotation, 20 μL of DNase I (Sigma, final concentration of 80 U/mL DNase I) was added and incubated on ice for 30 min. The solution was filtered twice by a 70 μm cell strainer (BD Biosciences) to yield a single cell suspension. After two rounds of PBS wash, cell pelleting, and resuspension, the ACK lysing buffer (Gibco) was used to remove erythrocytes. Remained cells were incubated 30 min at 4° C. with a mouse anti-rat-CD31 antibody (BD Pharmigen 555025). Cells were PBS washed twice and incubated 15 min with anti-mouse IgG1 MicroBeads (Miltenyi Biotec) according to the manufacturer protocol. Single CD31-positive cells were then collected using an autoMACS Pro Separator, per the manufacturer's instructions (Miltenyi Biotec). The purity (>95%) of CD31 positive cells was confirmed by flow cytometric analysis by a FACScan flow cytometer (BD Biosciences) after cells labeling with the FITC-conjugated anti-CD31 (ab33858, Abcam).
To induce PH, male Sprague-Dawley rats (10-14 week old) were injected intraperitoneally with 60 mg/kg monocrotaline (Sigma-Aldrich). After two days, rats underwent intraperitoneal injection daily with 25 mg/kg of verteporfin (Active Biochemicals Company, Ltd) solubilized in 5% dimethyl sulfoxide (DMSO, Sigma-Aldrich). […]

Lox = Lox activity in lungs of monocrotaline-exposed rats; conditions: daily BAPN or daily i.p. verteporfin 25 mg/kg, vs vehicle
Protocol: Monocrotaline-treated rats: As we previously described (7, 8), male Sprague-Dawley rats (10-14 week old) were injected with 60 mg/kg monocrotaline at time 0; at 0-4 weeks post-exposure, right heart catheterization was performed followed by harvest of lung tissue for RNA extraction or paraffin embedding, as described below (section: Tissue harvest).
To establish definitively whether periarteriolar ECM remodeling and YAP/TAZ modulate vascular cell metabolism in vivo, it was determined whether alteration of YAP/TAZ-dependent mechanotransduction directly controls glutaminolysis and PH development in the monocrotaline rat model. First, using a known pharmacologic inhibitor (β-aminoproprionitrile, BAPN) of Lox, the enzyme responsible for collagen crosslinking and consequent matrix stiffening, it was determined whether inhibition of ECM stiffening could prevent the metabolic changes and downstream PH manifestations observed in monocrotaline-exposed rats (FIG. 4A). […] Such metabolic effects further decreased vascular endothelial and smooth muscle proliferation, as reflected by in situ arteriolar staining (FIG. 4G), and ameliorated hemodynamic and histologic manifestations of PH, as measured by vascular remodeling and muscularization (FIG. 4G), and right ventricular systolic pressure (RVSP) (FIG. 4H).

GLS1 [3] = assay: GLS1 expression by RT-qPCR in monocrotaline-exposed rats; conditions: for GLS expression: CD31+ cells of monocrotaline-exposed rats, daily BAPN or daily i.p. verteporfin 25 mg/kg; for GLS1 expression in lungs: monocrotaline-exposed rats, daily BAPN or daily i.p. verteporfin, vs vehicle, RT-qPCR
Protocol: as §1, §2

[4] = daily i.p. 10 mg/kg C968 or CB-839, data not shown

In the case of `O=C(Cc1cccc(OC(F)(F)F)c1)Nc1ccc(CCCCc2nnc(NC(=O)Cc3ccccn3)s2)nn1` [CB839], the “adverse effects on left ventricular function” value [1, 4] is reported as “without adverse effects”, the “adverse effects on systemic blood pressure” value [1, 4] is reported as “without adverse effects” and the “GLS1 activity in whole rat lung” value (GLS1 [2]) is reported as “decreased”.

With `N#CCCN` [BAPN, β-aminoproprionitrile] the “CTGF and CYR61, YAP/TAZ target genes (YAP1-dependent gene expression)” value (shortened to “CTGF and CYR61, YAP/TAZ target genes”) (YAP/TAZ target genes) was “decrease”, the “LOX activity in lungs” value (Lox) was “decreased” and the GLS expression (GLS1 [3]) was “decrease”. For the same compound, the “GLS1 expression in lungs” value (GLS1 [3]) was “decreased”, the “adverse effects on left ventricular cardiac function” value ([1]; data not shown) was “without adverse effects” and the GLS activity (GLS1 [2]) was “decreased”.

With `C=Cc1c(C)c2cc3nc(cc4[nH]c(cc5nc(cc1[nH]2)C(C)=C5CCC(=O)O)c(CCC(=O)OC)c4C)[C@@]1(C)C3=CC=C(C(=O)OC)[C@H]1C(=O)OC` [Verteporfin, 3-[(23S,24R)-14-ethenyl-5-(3-methoxy-3-oxopropyl)-22,23-bis(methoxycarbonyl)-4,10,15,24-tetramethyl-25,26,27,28-tetraazahexacyclo[16.6.1.1^3,6.1^8,11.1^13,16.0^19,24]octacosa-1,3,5,7,9,11(27),12,14,16,18(25),19,21-dodecaen-9-yl]propanoic acid] the “CTGF and CYR61, YAP/TAZ target genes” value (YAP/TAZ target genes) was “decrease”, the “CTGF and CYR61, YAP/TAZ target genes” value (YAP/TAZ target genes; listed as verteporfin) was “decreased” and the “LOX activity in lungs” value (Lox) was “decreased”. For the same compound, the GLS expression (GLS1 [3]) was “decrease”, the GLS expression (GLS1 [3]; listed as verteporfin) was “improved” and the “GLS1 expression in lungs” value (GLS1 [3]) was “decreased”. The “adverse effects on left ventricular cardiac function” value ([1]; data not shown) was “without adverse effects”, the “adverse effects on systemic blood pressure” value ([1]; daily i.p. verteporfin 25 mg/kg, data not shown) was “without adverse effects” and the GLS activity (GLS1 [2]) was “decrease”. The GLS activity (GLS1 [2]; listed as verteporfin) was “improved”.

In the case of `CN(C)c1ccc(C2Nc3ccc4ccccc4c3C3=C2C(=O)CC(C)(C)C3)cc1Br` (stereo not shown) [C968, 5-(3-Bromo-4-(dimethylamino)phenyl)-2,2-dimethyl-2,3,5,6-tetrahydrobenzo[a]phenanthridin-4(1H)-one], the “adverse effects on left ventricular function” value [1, 4] is reported as “without adverse effects”, the “adverse effects on systemic blood pressure” value [1, 4] is reported as “without adverse effects” and the “GLS1 activity in whole rat lung” value (GLS1 [2]) is reported as “decreased”.
